Data as given in patent US8008456B2, “Compositions containing, methods involving, and uses of non-natural amino acids and polypeptides” (Ambrx, Inc., priority 2004, dated 2011).
Blank lines part the entries; values can stand above or below the molecule they belong to.

Columns and labels:
[1] = Intracellular concentration of non-natural amino acids (cellular uptake); assay type: in vitro ADME
Text: Non-natural amino acid uptake by a eukaryotic cell is one issue that is typically considered when designing and selecting non-natural amino acids, including but not limited to, for incorporation into a protein. […] Natural amino acids are taken up into the eukaryotic cell via a collection of protein-based transport systems. A rapid screen can be done which assesses which non-natural amino acids, if any, are taken up by cells (examples 15 & 16 herein illustrate non-limiting examples of tests which can be done on non-natural amino acids). See, e.g., the toxicity assays in, e.g., the U.S. Patent Publication No. 2004/198637 entitled “Protein Arrays,” which is herein incorporated by reference in its entirety, and Liu, D. R. & Schultz, P. G. (1999) Progress toward the evolution of an organism with an expanded genetic code. PNAS United States 96:4780-4785. Although uptake is easily analyzed with various assays, an alternative to designing non-natural amino acids that are amenable to cellular uptake pathways is to provide biosynthetic pathways to create amino acids in vivo.
(§1) This example provides results of four tests that were conducted on certain illustrative non-natural amino acids as an aid for predicting their properties for incorporation into non-natural amino acid polypeptides.

[2] = pH stability tests; assay type: physicochemical
Description: This example provides the results of pH stability tests that were conducted on certain illustrative non-natural amino acids as an aid for predicting their properties for incorporation into non-natural amino acid polypeptides.

[3] = Pharmacokinetic studies, single s.c. dose in rats, plasma growth hormone ELISA; assay type: in vivo; details: single-dose 1 mg/kg bolus s.c., normal male Sprague-Dawley rats; average (+/- standard deviation)
Description: Pharmacokinetic properties of PEG-modified growth hormone compounds were compared to each other and to nonPEGylated growth hormone in male Sprague-Dawley rats (261-425 g) obtained from Charles River Laboratories. Catheters were surgically installed into the carotid artery for blood collection. Following successful catheter installation, animals were assigned to treatment groups (three to six per group) prior to dosing. Animals were dosed subcutaneously with 1 mg/kg of compound in a dose volume of 0.41-0.55 ml/kg. Blood samples were collected at various time points via the indwelling catheter and into EDTA-coated microfuge tubes. Plasma was collected after centrifugation, and stored at −80° C. until analysis. Compound concentrations were measured using antibody sandwich growth hormone ELISA kits from either BioSource International (Camarillo, Calif.) or Diagnostic Systems Laboratories (Webster, Tex.). Concentrations were calculated using standards corresponding to the analog that was dosed. Pharmacokinetic parameters were estimated using the modeling program WinNonlin (Pharsight, version 4.1). Noncompartmental analysis with linear-up/log-down trapezoidal integration was used, and concentration data was uniformly weighted.
Plasma concentrations were obtained at regular intervals following a single subcutaneous dose in rats. […] Plasma samples were taken over the regular time intervals and assayed for injected compound as described. […] Concentration vs time curves were evaluated by noncompartmental analysis (Pharsight, version 4.1). Values shown are averages (+/−standard deviation). Cmax: maximum concentration; terminal t1/2: terminal half-life; AUC0->inf: area under the concentration-time curve extrapolated to infinity; MRT: mean residence time; Cl/f: apparent total, plasma clearance; Vz/f: apparent volume of distribution during terminal phase.

[4] = tested on: aminoacyl-tRNA synthetase (RS); assay: RS test
Description: as §1

Molecule: CC(=O)C(F)(F)c1ccc(C[C@H](N)C(=O)O)cc1
Intracellular Concentration [1]: 279 µM

Molecule: 30KPEG-pAF145(his)hGH: "His-tagged hGH polypeptide comprising non-natural amino acid p-acetyl-phenylalanine covalently linked to 30 kDa PEG at each of six different positions"
AUC0->inf [3]: 13,162 (±6,726) ng × hr/ml | Cl/f [3]: 88 (±29) ml/hr/kg | Cmax [3]: 634 (±256) ng/ml | MRT [3]: 17.82 (±0.56) h | Terminal t1/2 [3]: 5.87 (±0.09) h

Molecule: 30KPEG-pAF134(his)hGH: "His-tagged hGH polypeptide comprising non-natural amino acid p-acetyl-phenylalanine covalently linked to 30 kDa PEG at each of six different positions"
AUC0->inf [3]: 7,304 (±2,494) ng × hr/ml | Cl/f [3]: 151 (±63) ml/hr/kg | Cmax [3]: 566 (±204) ng/ml | MRT [3]: 12.15 (±1.03) h | Terminal t1/2 [3]: 4.36 (±0.33) h

Molecule: CC(=O)N/N=C/c1ccc(C[C@H](N)C(=O)O)cc1
RS test [4]: ✓ | Intracellular Concentration [1]: 30 µM

Molecule: CC(=O)CC(=O)c1ccc(C[C@H](N)C(=O)O)cc1
RS test [4]: Meta- bolized

Molecule: 30KPEG-pAF143(his)hGH: "His-tagged hGH polypeptide comprising non-natural amino acid p-acetyl-phenylalanine covalently linked to 30 kDa PEG at each of six different positions"
AUC0->inf [3]: 17,494 (±3,654) ng × hr/ml | Cl/f [3]: 59 (±11) ml/hr/kg | Cmax [3]: 803 (±149) ng/ml | MRT [3]: 18.83 (±1.59) h | Terminal t1/2 [3]: 6.02 (±1.43) h

Second part, the molecule after the results:

pH stability ([2]; pH 4.0, 1 hour): 4.0% | pH stability ([2]; pH 4.0, 1 day): <1% | pH stability ([2]; pH 4.0, 2 days): <1% | pH stability ([2]; pH 4.0, 3 days): <1% | pH stability ([2]; pH 4.0, 4 days): <1% | pH stability ([2]; pH 4.0, 5 days): <1% | pH stability ([2]; pH 4.0, 6 days): <1% | pH stability ([2]; pH 4.0, 7 days): <1% | pH stability ([2]; pH 4.0, 10 days): <1% | pH stability ([2]; pH 5.0, 1 hour): 5.0% | pH stability ([2]; pH 5.0, 1 day): <1% | pH stability ([2]; pH 5.0, 2 days): <1% | pH stability ([2]; pH 5.0, 3 days): <1% | pH stability ([2]; pH 5.0, 4 days): <1% | pH stability ([2]; pH 5.0, 5 days): <1% | pH stability ([2]; pH 5.0, 6 days): <1% | pH stability ([2]; pH 5.0, 7 days): <1% | pH stability ([2]; pH 5.0, 10 days): <1% | pH stability ([2]; pH 6.5, 1 hour): 6.5% | pH stability ([2]; pH 6.5, 1 day): <1% | pH stability ([2]; pH 6.5, 2 days): <1% | pH stability ([2]; pH 6.5, 3 days): <1% | pH stability ([2]; pH 6.5, 4 days): <1% | pH stability ([2]; pH 6.5, 5 days): <1% | pH stability ([2]; pH 6.5, 6 days): <1% | pH stability ([2]; pH 6.5, 7 days): <1% | pH stability ([2]; pH 6.5, 10 days): <1% | pH stability ([2]; pH 7.4, 1 hour): 7.4% | pH stability ([2]; pH 7.4, 1 day): <1% | pH stability ([2]; pH 7.4, 2 days): <1% | pH stability ([2]; pH 7.4, 3 days): <1% | pH stability ([2]; pH 7.4, 4 days): <1% | pH stability ([2]; pH 7.4, 5 days): <1% | pH stability ([2]; pH 7.4, 6 days): <1% | pH stability ([2]; pH 7.4, 7 days): <1% | pH stability ([2]; pH 7.4, 10 days): <1% | pH stability ([2]; pH 8.0, 1 hour): 8.0% | pH stability ([2]; pH 8.0, 1 day): <1% | pH stability ([2]; pH 8.0, 2 days): <1% | pH stability ([2]; pH 8.0, 3 days): <1% | pH stability ([2]; pH 8.0, 4 days): <1% | pH stability ([2]; pH 8.0, 5 days): <1% | pH stability ([2]; pH 8.0, 6 days): <1% | pH stability ([2]; pH 8.0, 7 days): <1% | pH stability ([2]; pH 8.0, 10 days): <1%
Molecule: COCCOC(=O)NCCO/N=C(\C)C(=O)Nc1ccccc1 [drawing 138]

pH stability ([2]; pH 4.0, 1 hour): <1% | pH stability ([2]; pH 4.0, 1 day): <1% | pH stability ([2]; pH 4.0, 2 days): <1% | pH stability ([2]; pH 4.0, 3 days): <1% | pH stability ([2]; pH 4.0, 4 days): <1% | pH stability ([2]; pH 4.0, 5 days): <1% | pH stability ([2]; pH 4.0, 6 days): <1% | pH stability ([2]; pH 4.0, 7 days): <1% | pH stability ([2]; pH 4.0, 10 days): <1% | pH stability ([2]; pH 5.0, 1 hour): <1% | pH stability ([2]; pH 5.0, 1 day): <1% | pH stability ([2]; pH 5.0, 2 days): <1% | pH stability ([2]; pH 5.0, 3 days): <1% | pH stability ([2]; pH 5.0, 4 days): <1% | pH stability ([2]; pH 5.0, 5 days): <1% | pH stability ([2]; pH 5.0, 6 days): <1% | pH stability ([2]; pH 5.0, 7 days): <1% | pH stability ([2]; pH 5.0, 10 days): <1% | pH stability ([2]; pH 6.5, 1 hour): <1% | pH stability ([2]; pH 6.5, 1 day): <1% | pH stability ([2]; pH 6.5, 2 days): <1% | pH stability ([2]; pH 6.5, 3 days): <1% | pH stability ([2]; pH 6.5, 4 days): <1% | pH stability ([2]; pH 6.5, 5 days): <1% | pH stability ([2]; pH 6.5, 6 days): <1% | pH stability ([2]; pH 6.5, 7 days): <1% | pH stability ([2]; pH 6.5, 10 days): <1% | pH stability ([2]; pH 7.4, 1 hour): <1% | pH stability ([2]; pH 7.4, 1 day): <1% | pH stability ([2]; pH 7.4, 2 days): <1% | pH stability ([2]; pH 7.4, 3 days): <1% | pH stability ([2]; pH 7.4, 4 days): <1% | pH stability ([2]; pH 7.4, 5 days): <1% | pH stability ([2]; pH 7.4, 6 days): <1% | pH stability ([2]; pH 7.4, 7 days): <1% | pH stability ([2]; pH 7.4, 10 days): <1% | pH stability ([2]; pH 8.0, 1 hour): <1% | pH stability ([2]; pH 8.0, 1 day): <1% | pH stability ([2]; pH 8.0, 2 days): <1% | pH stability ([2]; pH 8.0, 3 days): <1% | pH stability ([2]; pH 8.0, 4 days): <1% | pH stability ([2]; pH 8.0, 5 days): <1% | pH stability ([2]; pH 8.0, 6 days): <1% | pH stability ([2]; pH 8.0, 7 days): <1% | pH stability ([2]; pH 8.0, 10 days): <1%
Molecule: COCCOC(=O)NCCO/N=C(\C)C(=O)Nc1ccccc1 [drawing 134]

Intracellular Concentration [1]: 300 µM
Molecule: CC(C)=NOCc1ccc(C[C@H](N)C(=O)O)cc1
